{
  "source": "paper PMC10272112",
  "about": "(Nature Communications, 2023)",
  "system": "A549 cells",
  "assay": "CellRox deep red assay for tBuOOH-induced ROS",
  "settings": "for tBuOOH-induced ROS (CellRox), relative to DMSO, Mean / tBuOOH-induced ROS (CellRox), relative to DMSO, replicate values: sheet 4c, DMSO mean = 1",
  "note": "Where “and” joins values, the source holds several entries; their conditions need not be identical. Equal entries are not always repeated.",
  "protocol": "A549 cells were maintained in DMEM (Sigma) supplemented with 10% fetal bovine serum (Pan Biotech). […] The CellRox assay was performed according to the product guidelines (ThermoFisher). Briefly, cells were treated with lipoic acid, N-acetyl-cysteine (NAC), or vector control (DMSO) for 1 h, followed by a 2 h treatment with 200 µM tert-butyl hydroperoxide, and then stained with 5 µM CellRox Deep Red for 1 h. Cells were washed twice with FluoroBrite DMEM (ThermoFisher) supplemented with 10% FBS before imaging. CellRox Deep Red signal intensity was measured on a Leica DMI 6000 B epifluorescent microscope with a Cy5 filter set. […] Significance was calculated by ANOVA with a post hoc Dunnett’s multiple comparisons test against the DMSO control (GraphPad).",
  "data": [
    {"smiles": "O=C(O)CCCCC1CCSS1", "note": "(racemic) [(R/S)-LA, (R/S)-lipoic acid]", "values": [
      {"measurement": "levels of ROS (oxidative stress) relative to control", "setting": "100 µM drug pre-treatment, 2 h 200 µM tBuOOH", "result": "60–70%"},
      {"measurement": "tBuOOH-induced ROS (CellRox), relative to DMSO, Mean", "setting": "(R/S)-LA 10 ?M", "result": 0.7284},
      {"measurement": "tBuOOH-induced ROS (CellRox), relative to DMSO, replicate values", "setting": "(R/S)-LA 10 ?M", "result": "0.6361 and 0.7994 and 0.7496"},
      {"measurement": "tBuOOH-induced ROS (CellRox), relative to DMSO, Mean", "setting": "(R/S)-LA 30 ?M", "result": 0.7039},
      {"measurement": "tBuOOH-induced ROS (CellRox), relative to DMSO, replicate values", "setting": "(R/S)-LA 30 ?M", "result": "0.5919 and 0.6862 and 0.8337"},
      {"measurement": "tBuOOH-induced ROS (CellRox), relative to DMSO, Mean", "setting": "(R/S)-LA 100 ?M", "result": 0.6085},
      {"measurement": "tBuOOH-induced ROS (CellRox), relative to DMSO, replicate values", "setting": "(R/S)-LA 100 ?M", "result": "0.608 and 0.6603 and 0.5572"},
      {"measurement": "tBuOOH-induced ROS (CellRox), relative to DMSO, Mean", "setting": "(R/S)-LA 300 ?M", "result": 0.7233},
      {"measurement": "tBuOOH-induced ROS (CellRox), relative to DMSO, replicate values", "setting": "(R/S)-LA 300 ?M", "result": "0.909 and 0.609 and 0.652"}
    ]}
  ]
}
